Laboratory results from publication PMC6449294, “SNAPshots of the MCHR1: a Comparison Between the PET-Tracers [^18F]FE@SNAP and [^11C]SNAP-7941” (Molecular Imaging and Biology, 2018).

Test system: P-gp/BCRP
Test: Small animal PET of mouse brain, vehicle vs pretreatment with P-gp/BCRP inhibitor TQD
Type: in vivo
Details: mice, TQD 15 mg/kg 30 min before radiotracer
Description: Ten-week-old male rats (412 ± 58 g, Sprague-Dawley, HIM:OFA, n = 30) and 12-week-old male mice (24 ± 6 g, BALB/cAnNRj, n = 7) were purchased from the Division of Laboratory Animal Science and Genetics, Himberg, Austria. Animals were kept under conventional housing conditions (22 ± 1 °C; 40–70 % humidity) with food and water supply ad libitum and 12-h day/night cycle. All animals were treated according to the European Union rules on animal care and respective animal experiments were approved by the Austrian Ministry of Sciences, Research and Economy (BMWFW-66.009/0029-WF/V/3b/20159). For in vivo imaging, animals were anesthetized using 1.5–2 % isoflurane mixed with oxygen (1.5–2 l/min) to avoid movement during the examination. Anesthesia as well as vital parameters were monitored during the time interval of PET acquisition. Radioligands and non-labeled compounds were administered intravenously via the lateral tail vein.
Anesthetized rats and mice were immobilized in a multimodal animal carrier unit (MACU; medres®—medical research GmbH, Cologne, Germany). The body temperature was preserved at 37 °C throughout the whole experiment. […]

In the case of `COCC1=C(C(=O)OCC[18F])C(c2ccc(F)c(F)c2)N(C(=O)NCCCN2CCC(c3cccc(NC(C)=O)c3)CC2)C(=O)N1` (stereo not shown) [[^18F]FE@SNAP], the “increase of brain uptake in TQD blocking group vs vehicle” value was 1.93 fold.
